Data from patent publication EP1053246B1, “BETA-SHEET MIMETICS AND METHODS RELATING TO THE USE THEREOF” (MOLECUMETICS, LTD., priority 1998, dated 1999).

Assays:
[1] = biological target: T1, thrombin (Bos taurus, UniProt P00735); experiment: thrombin inhibition assay (IC50, Example 4); assay type: biochemical, bovine; details: footnote d: IC50
[2] = biological target: T2, bovine trypsin (Bos taurus, UniProt P00760); experiment: trypsin inhibition assay (IC50, Example 4); assay type: biochemical; details: footnote d: IC50
T2 construct: purchased Sigma
T2 sequence (P00760 24-246): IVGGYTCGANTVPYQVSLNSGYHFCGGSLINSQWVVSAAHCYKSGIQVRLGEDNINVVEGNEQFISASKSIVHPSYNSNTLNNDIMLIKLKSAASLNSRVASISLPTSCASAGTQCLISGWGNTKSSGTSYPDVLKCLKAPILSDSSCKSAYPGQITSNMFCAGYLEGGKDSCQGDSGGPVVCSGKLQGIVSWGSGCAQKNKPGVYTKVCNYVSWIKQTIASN
Procedure: (§1) All inhibition assays of this experiment were performed at room temperature in 96 well microplates using a Bio-Rad microplate reader (Model 3550). […] This solution (2.05 mM) served as the stock solution for all the inhibition assays. The hydrolysis of chromogenic substrates was monitored at 405 nm. The reaction progress curves were recorded by reading the plates typically 90 times with 30 seconds to 2 minute intervals. The initial rate were determined by unweighted nonlinear least-squares fitting to a first order reaction in GraFit.
In the trypsin assay, pH 7.8 Tris (0.10 M Tris and 0.02 M CaCl2) was utilized as the buffer. BAPNA (from Sigma) was used at 1 mg/ml in 1% DMSO (v/v) deionized water solution as substrate. The same dilutions of structure (13b) were made as for Factor VII assay.

[3] = biological target: Activated Protein C (aPC) (Homo sapiens, UniProt P04070); experiment: activated protein C inhibition assay (IC50, Example 4); assay type: biochemical; details: footnote d: IC50
Sequence of Activated Protein C (aPC) (P04070 43-197 limits assumed): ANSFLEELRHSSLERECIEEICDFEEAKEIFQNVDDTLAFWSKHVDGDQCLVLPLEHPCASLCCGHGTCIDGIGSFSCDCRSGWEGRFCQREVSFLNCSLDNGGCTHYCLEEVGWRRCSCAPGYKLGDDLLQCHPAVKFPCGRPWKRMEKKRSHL
Sequence of Activated Protein C (aPC) (P04070 212-461 limits assumed): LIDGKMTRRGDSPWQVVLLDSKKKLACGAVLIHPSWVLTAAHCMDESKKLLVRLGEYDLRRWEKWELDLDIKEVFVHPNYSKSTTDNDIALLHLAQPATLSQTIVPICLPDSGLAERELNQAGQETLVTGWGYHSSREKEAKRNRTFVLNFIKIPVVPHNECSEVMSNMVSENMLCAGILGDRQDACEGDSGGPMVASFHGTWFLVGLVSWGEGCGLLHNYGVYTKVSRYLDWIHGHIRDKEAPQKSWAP
Procedure: as §1
Activated Protein C (aPC): Buffer was the same as used in thrombin assay. […] Dilutions of structure (13b) were the same as in urokinase assay.

[4] = biological target: Tissue Plasminogen Activator (t-PA) (Homo sapiens, UniProt P00750); experiment: t-PA inhibition assay (IC50, Example 4); assay type: biochemical; details: footnote d: IC50
Sequence of Tissue Plasminogen Activator (t-PA) (P00750 36-562): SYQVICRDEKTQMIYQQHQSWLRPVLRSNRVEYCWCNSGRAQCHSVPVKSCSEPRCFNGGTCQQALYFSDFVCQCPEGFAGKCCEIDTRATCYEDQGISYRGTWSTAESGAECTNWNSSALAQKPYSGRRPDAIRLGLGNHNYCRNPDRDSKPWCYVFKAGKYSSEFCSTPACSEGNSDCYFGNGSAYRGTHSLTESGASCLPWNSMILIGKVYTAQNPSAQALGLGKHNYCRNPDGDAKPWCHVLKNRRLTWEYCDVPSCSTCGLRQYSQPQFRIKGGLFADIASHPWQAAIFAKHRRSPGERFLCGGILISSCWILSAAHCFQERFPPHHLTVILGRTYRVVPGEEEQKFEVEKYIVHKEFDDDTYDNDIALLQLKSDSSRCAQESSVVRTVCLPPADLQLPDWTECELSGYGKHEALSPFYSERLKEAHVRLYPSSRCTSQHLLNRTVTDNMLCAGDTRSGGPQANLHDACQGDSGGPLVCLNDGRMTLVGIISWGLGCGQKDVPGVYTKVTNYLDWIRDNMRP
Procedure: as §1

[5] = biological target: T3, urokinase (Homo sapiens, UniProt P00749); experiment: urokinase inhibition assay (IC50, Example 4); assay type: biochemical; design: purchased Sigma; details: footnote d: IC50
Procedure: as §1
In the urokinase assay, buffer was pH 8.8 0.05 M Tris and 0.05 M NaCl in deionized water. S-2444 (from Sigma), pyroGlu-Gly-Arg-pNA at 0.5 mM in water was utilized as substrate. The same dilution procedure was used as for Factor VII and Factor X. Assay protocol is the same as for thrombin except 18.5 nM of human urokinase (from Sigma) was utilized.

[6] = biological target: T4, FVIIa and TF complex (Homo sapiens, UniProt P08709); experiment: Factor VII inhibition assay (IC50, Example 4); assay type: biochemical; details: footnote d: IC50
T4 construct: 50 µl of 16 nM FVIIa and TF complex solution
T4 sequence (P13726 33-295 partner, one chain of several): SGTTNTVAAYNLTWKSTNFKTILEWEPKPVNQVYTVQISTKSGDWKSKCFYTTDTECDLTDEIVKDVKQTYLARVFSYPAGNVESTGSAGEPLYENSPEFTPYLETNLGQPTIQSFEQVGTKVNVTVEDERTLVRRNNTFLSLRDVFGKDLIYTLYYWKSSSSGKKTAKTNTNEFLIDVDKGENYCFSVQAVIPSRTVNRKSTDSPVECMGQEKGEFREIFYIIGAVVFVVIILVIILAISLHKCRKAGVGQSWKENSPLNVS
Procedure: as §1
In the Factor VII assay, S-2288 (from Pharmacia), D-Ile-Pro-Arg-pNA was used at […] in deionized water as substrate. […] This dilution served as the first point of the inhibitor (20 µM). From this concentration point 6 more sequential dilutions were made with a dilution factor of 2. 50 µl of 16 nM FVIIa and TF complex solution and 40 µl of the inhibitor solutions were added into each well, the mixtures were incubated for 20 minutes before 10 µl of 20 mM S-2288 was added.

[7] = biological target: T5, bovine factor Xa (Bos taurus, UniProt P00743); experiment: Factor X inhibition assay (IC50, Example 4); assay type: biochemical; details: footnote d: IC50; footnote e: bovine plasma; read-out: IC50 Factor X
T5 construct: bovine factor Xa (from Sigma); purchased Sigma
T5 sequence (P00743 41-180 limits assumed): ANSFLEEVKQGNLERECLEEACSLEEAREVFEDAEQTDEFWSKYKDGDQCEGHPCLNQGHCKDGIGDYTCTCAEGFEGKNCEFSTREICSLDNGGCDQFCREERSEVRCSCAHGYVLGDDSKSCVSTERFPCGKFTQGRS
T5 sequence (P00743 234-492 limits assumed): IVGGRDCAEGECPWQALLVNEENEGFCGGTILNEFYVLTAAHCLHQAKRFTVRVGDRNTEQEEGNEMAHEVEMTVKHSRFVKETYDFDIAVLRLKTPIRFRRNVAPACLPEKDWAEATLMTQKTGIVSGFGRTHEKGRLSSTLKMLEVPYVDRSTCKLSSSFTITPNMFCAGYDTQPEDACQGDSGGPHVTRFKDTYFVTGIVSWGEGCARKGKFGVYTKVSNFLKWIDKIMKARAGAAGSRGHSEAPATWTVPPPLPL
Procedure: as §1
In the Factor X assay, buffer and substrate are the same as used for thrombin assay. A 1:100 dilution was made into pH 8.4 Tris buffer to serve as the first point. Seven dilutions with a dilution factor of 2 were made. The assay protocol is the same as for thrombin except 25 nM of bovine factor Xa (from Sigma) in pH 8.4 Tris buffer was used instead of thrombin.

[8] = biological target: T6, Plasmin (Bos taurus, UniProt P06868); experiment: plasmin inhibition assay (IC50, Example 4); assay type: biochemical; design: Plasmin: Buffer (see thrombin assay); details: footnote d: IC50
T6 sequence (P06868 104-583 limits assumed): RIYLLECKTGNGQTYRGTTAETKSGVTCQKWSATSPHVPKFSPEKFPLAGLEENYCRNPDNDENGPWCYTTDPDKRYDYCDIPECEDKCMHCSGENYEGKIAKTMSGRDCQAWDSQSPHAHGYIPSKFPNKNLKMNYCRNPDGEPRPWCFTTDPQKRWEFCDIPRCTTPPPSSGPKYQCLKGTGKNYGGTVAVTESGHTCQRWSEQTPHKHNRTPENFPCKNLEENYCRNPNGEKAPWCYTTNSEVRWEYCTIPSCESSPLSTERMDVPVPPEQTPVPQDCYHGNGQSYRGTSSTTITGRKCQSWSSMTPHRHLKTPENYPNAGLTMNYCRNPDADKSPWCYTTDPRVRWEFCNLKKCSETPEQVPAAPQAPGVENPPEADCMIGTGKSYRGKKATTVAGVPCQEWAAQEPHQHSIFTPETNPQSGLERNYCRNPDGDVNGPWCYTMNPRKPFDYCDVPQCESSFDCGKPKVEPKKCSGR
T6 sequence (P06868 584-812 limits assumed): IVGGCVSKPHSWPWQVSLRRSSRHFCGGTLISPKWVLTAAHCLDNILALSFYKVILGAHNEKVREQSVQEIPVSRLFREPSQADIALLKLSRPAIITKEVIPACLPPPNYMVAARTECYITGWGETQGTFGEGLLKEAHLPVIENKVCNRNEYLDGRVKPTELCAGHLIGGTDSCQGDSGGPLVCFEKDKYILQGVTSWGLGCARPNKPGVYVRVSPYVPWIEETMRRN
Procedure: as §1
For dilutions of structure (13b) (see urokinase assay).

[9] = biological target: T3, urokinase; experiment: urokinase inhibition assay (Ki, Example 5); assay type: biochemical, human kidney; design: from tissue; host or cells: human kidney
[10] = biological target: T6, Plasmin; experiment: plasmin inhibition assay (Ki, Example 5); assay type: biochemical, bovine plasma; design: Plasmin: Buffer (see thrombin assay); from tissue; host or cells: bovine plasma; details: read-out: Ki (M) Plasmin
Procedure: (§2) The reaction progress curves were recorded by reading the plates, typically 60 times with 30 second to 2 minute intervals. Initial rates were determined by unweighted nonlinear least-squares fitting to a first order reaction in GraFit (Erithacus Software Limited, London, England).

[11] = biological target: T7, factor VII (Homo sapiens, UniProt P08709); experiment: Factor VII inhibition assay (Ki, Example 5); assay type: biochemical; details: read-out: Ki (M) Factor VII
T7 construct: human Factor VIIa (FVIIa)
T7 sequence (P08709 61-212 limits assumed): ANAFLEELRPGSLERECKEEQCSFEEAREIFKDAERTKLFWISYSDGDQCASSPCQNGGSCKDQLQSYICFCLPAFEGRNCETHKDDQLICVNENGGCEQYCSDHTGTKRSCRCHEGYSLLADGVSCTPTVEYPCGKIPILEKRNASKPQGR
T7 sequence (P08709 213-466 limits assumed): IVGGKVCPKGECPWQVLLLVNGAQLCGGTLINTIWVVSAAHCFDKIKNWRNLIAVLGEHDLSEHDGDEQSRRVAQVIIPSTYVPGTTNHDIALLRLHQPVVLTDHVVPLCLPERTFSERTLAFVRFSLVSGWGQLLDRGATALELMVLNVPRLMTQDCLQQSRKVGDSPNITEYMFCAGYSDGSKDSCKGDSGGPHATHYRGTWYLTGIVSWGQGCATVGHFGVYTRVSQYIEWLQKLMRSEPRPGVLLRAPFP
Procedure: as §2
From this concentration point seven more sequential dilutions were made for the assay.

[12] = biological target: Factor XI (Homo sapiens, UniProt P03951); experiment: Factor XI inhibition assay (Ki); assay type: biochemical; details: read-out: Ki (M) Factor XI
Sequence of Factor XI (P03951 388-625 limits assumed): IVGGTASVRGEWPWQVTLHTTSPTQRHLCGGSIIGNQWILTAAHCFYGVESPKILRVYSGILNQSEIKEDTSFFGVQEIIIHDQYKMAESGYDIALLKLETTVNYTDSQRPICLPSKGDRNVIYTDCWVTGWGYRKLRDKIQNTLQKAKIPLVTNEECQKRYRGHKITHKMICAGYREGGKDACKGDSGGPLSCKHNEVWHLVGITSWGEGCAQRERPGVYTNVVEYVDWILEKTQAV
Sequence of Factor XI (P03951 19-387 limits assumed): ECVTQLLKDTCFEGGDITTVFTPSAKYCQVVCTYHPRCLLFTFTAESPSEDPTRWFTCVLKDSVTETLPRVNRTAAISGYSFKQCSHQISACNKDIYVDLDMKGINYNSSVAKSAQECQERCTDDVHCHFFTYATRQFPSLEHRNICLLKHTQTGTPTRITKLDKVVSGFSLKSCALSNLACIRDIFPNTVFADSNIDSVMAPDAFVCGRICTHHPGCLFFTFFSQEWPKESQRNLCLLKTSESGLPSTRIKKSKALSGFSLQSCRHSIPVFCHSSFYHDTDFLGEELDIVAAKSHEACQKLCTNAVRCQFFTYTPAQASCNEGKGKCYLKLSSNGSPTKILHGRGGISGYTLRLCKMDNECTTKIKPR

[13] = biological target: t-PA (Homo sapiens, UniProt P00750); experiment: t-PA inhibition assay (Ki, Example 5); assay type: biochemical; details: tissue Plasminogen Activator; read-out: Ki (M) tPA
Sequence of t-PA (P00750 36-562): as the sequence (P00750 36-562) above
Procedure: as §2

[14] = biological target: T1, thrombin; experiment: thrombin inhibition of solid phase synthesized mimetics; assay type: biochemical; details: assayed as mixtures of diastereomers; read-out: Ki as thrombin inhibitors (asterisk at compound number)
Procedure: General Procedure: The synthesis of β-strand mimetics was initiated by deprotection of Fmoc PAL resin using 25% piperidine in DMF. Following extensive washing with DMF, the resin was treated with the acid fluoride of N-Fmoc-4-aminomethylbenzoic acid, or (81), or (86) and Hunigs' base in DMF until the Kaiser test was negative. Alternatively, the Fmoc-protected thiazole- (75) or imidazole-based (77) linkers were coupled to the resin using BOP, HOBt and DIEA. In some instances Fmoc-Leu or another amino acid was attached to the resin prior to the thiazole- (75) or imidazole-based (77) linkers via the same methodology. […] Deprotection of all Fmoc-protected linkers was effected by treatment with 25% piperidine in DMF, and deprotection the Boc-protected linker (77) was effected by TMS-Cl (1 M) and phenol (3 M) in dichloromethane for 30 min. The lysinol derivative (90) was coupled to resin-bound linkers N-Fmoc-4-aminomethylbenzoic acid, (81), or (86) using PyBOP, HOBt and Hunigs' base in DMF until a negative Kaiser test was achieved. Treatment of the resin with 25% piperidine in DMF then cleaved the FMOC group. Following washing with DMF a dienoic acid was coupled to the resin-bound linkers using PyBOP, HOBt and Hunigs' base in DMF until the result of a Kaiser test was negative. […]

Structure (SMILES): N=C(N)NCCC[C@H](NC(=O)[C@@H]1CCN2CC[C@@](N)(Cc3ccccc3)C(=O)N12)C(=O)CCl [Structure (13b)]
- IC50 [1]: 1.2 nM
- IC50 [2]: 160 nM
- IC50 [3]: 528 nM
- IC50 [4]: 632 nM
- IC50 [5]: 927 nM
- IC50 [6]: 140 nM
- IC50 [7]: 386 nM
- IC50 [8]: 978 nM

Structure (SMILES): N=C(N)NCCCC(NC(=O)C1CCN2CCC(N)(Cc3ccccc3)C(=O)N12)C(=O)c1nc2ccccc2s1 (centres unmarked) [Structure (20b)]
- Ki [9]: 600 nM
- Ki [10]: 4.15e-07 M
- Ki [11]: 2.7e-07 M
- Ki [12]: 2.7e-08 M
- Ki [13]: 4.95e-07 M

Structure (SMILES): CC/C=C\CCC1C=CC(C(=O)NC(CCCCN)C(=O)C(=O)NCCc2ccc(C(N)=O)cc2)n2c(=O)n(CC(c3ccccc3)c3ccccc3)c(=O)n21 (centres unmarked) [compound 106]
- Ki [14]: < 10 nM
